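The compound was tested at five concentrations on cells cultured in 96-well plates, with a 48-hour exposure period. At the GI50, growth is halved. TGI: concentration producing complete growth inhibition.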
Assays:
Experiment in all cases: growth of human tumour cells (NCI), 48 h
[1] = system: COLO 205 colon
[2] = system: KM12 colon
[3] = system: EKVX NSCLC
[4] = system: RXF 393 renal
[5] = system: MOLT-4 leukemia
[6] = system: A498 renal
[7] = system: NCI-H23 lung
[8] = system: SF-268 CNS
[9] = system: LOX IMVI melanoma
[10] = system: RPMI-8226 leukemia

Row | Structure (SMILES) | GI50 [1] [µM] | TGI [1] [µM] | GI50 [2] [µM] | TGI [2] [µM] | GI50 [3] [µM] | TGI [3] [µM] | GI50 [4] [µM] | TGI [4] [µM] | GI50 [5] [µM] | TGI [5] [µM] | GI50 [6] [µM] | TGI [6] [µM] | GI50 [7] [µM] | TGI [7] [µM] | GI50 [8] [µM] | TGI [8] [µM] | GI50 [9] [µM] | TGI [9] [µM] | GI50 [10] [µM] | TGI [10] [µM]
1 | COC(=O)c1c2c(c(C)[n+]([O-])c1C)C(=O)C=C(NCc1ccc(Cl)cc1)C2=O | 0.278 | 0.963 | 0.127 | 2 | 0.783 | 2.39 | 1.22 | 2.53 | 0.514 | 2.92 | 1.21 | 2.47 | 0.572 | 2.9 | 0.747 | 2.96 | 0.053 | 1.6 | 1.24 | 4.7
2 | COC(=O)C1=CN(CC2=CC(=O)C(C)=CC2=O)C=C(C(=O)OC)C1c1cccc(OC)c1OC | 9.81 | > 32.6 | 18 | 57.2 | 35.6 | > 100 | 11.5 | 26.9 | 3.28 | 9.68 | 20.8 | 55.2 | 22.4 | > 55.1 | 18.7 | > 68.4 | 20 | 45.2 | 3.09 | 10.9
3 | N#C/C(=C\c1cn(-c2ccccc2)c2ccccc12)C(=O)O | 85.9 | > 100 | 30.1 | > 100 | 34.2 | > 100 | 28.7 | > 100 | 72.8 | > 100 | 13.4 | 35 | 35.7 | > 100 | 43.4 | > 100 | 3.71 | > 100 | 43 | > 100
4 | Cc1ccc(NC(=O)c2ccnc(C(F)(F)F)c2)cc1-c1cc(OCCO)nc(N2CCOCC2)c1 | 0.445 | 11.8 | 2.28 | 22.1 | 2.44 | 29.5 | 1.94 | 10.4 | 3.5 | > 100 | 1.06 | 3.74 | 0.916 | 12.5 | 4.08 | 23.7 | 0.147 | 4.26 | 2.7 | > 100
5 | C=C1C(=O)O[C@H]2[C@H]1CC/C(COC(=O)NCCc1ccc(OC)cc1)=C\CC[C@@]1(C)O[C@@H]21 | 1.94 | 4.18 | 8.36 | 24.4 | 7.45 | 21.5 | 1.55 | 3.11 | 2.61 | 6.77 | 4.52 | 18.1 | 4.34 | 18.6 | 10.6 | 23.3 | 1.38 | 2.89 | 2.85 | 7.59
6 | O=C(CNC(=O)c1cccc2ccccc12)Nc1ccccc1Oc1cccc(O)c1 | 14.7 | > 25 | 2.18 | > 25 | 8.82 | > 25 | 4.12 | 15.4 | 4.84 | > 25 | 5.11 | > 25 | 16 | > 25 | 20.9 | > 25 | 15 | > 25 | 8.04 | > 25
7 | CCN(CC)c1ccc(/C=N/NC(=O)c2ccc(Nc3ccnc(C(F)(F)F)c3)cc2)c(O)c1 | 0.281 | 1.09 | 0.316 | 4.1 | 0.167 | 1.76 | 0.156 | 0.44 | 0.117 | 1.38 | 0.479 | 10.6 | 0.428 | 9.8 | 0.155 | > 20.7 | 0.14 | 0.922 | 0.12 | 0.555
8 | Cc1c(C(=O)/C=C/c2ccc(O)cc2)nnn1-c1ccnc2c(C(F)(F)F)cccc12 | 5.68 | 34.8 | 8.92 | > 100 | 39 | > 100 | 16.6 | 67.3 | 5.06 | 30.6 | 51 | > 100 | 15.2 | > 100 | 4.08 | 71.8 | 6.41 | > 100 | 2.84 | 21.1
9 | Nc1nc(-n2cccn2)nc(-n2cccn2)c1Br | > 100 | > 100 | > 100 | > 100 | > 100 | > 100 | > 100 | > 100 | > 100 | > 100 | 9.7 | 92.6 | > 100 | > 100 | > 100 | > 100 | > 100 | > 100 | > 100 | > 100
10 | O=C(O)CC(Cc1ccc2c(c1)OCO2)C(=O)O (stereo not given) | – | > 100 | – | > 100 | – | > 100 | – | > 100 | – | > 100 | – | > 100 | – | > 100 | – | > 100 | – | > 100 | – | > 100
11 | CC(=O)OCC(=O)[C@@]1(O)[C@H](C)C[C@H]2[C@@H]3C=C(C)C4=Cc5c(cnn5-c5ccc(F)cc5)C[C@]4(C)[C@H]3[C@@H](O)C[C@@]21C | 1.74 | 3.34 | 1.44 | 2.94 | 1.88 | 10.4 | 0.709 | 2.35 | 1.94 | 6.76 | 1.48 | 3.15 | 2.08 | 5.8 | 2.48 | 8.39 | 1.66 | 3.8 | 0.161 | 1.14
12 | COc1ccc(/C=C/C(=O)c2ccc(Nc3ncnc4ccccc34)cc2)cc1OC | 14.8 | > 100 | 3.45 | > 100 | 13.9 | > 100 | 2.2 | 9.96 | 5.68 | 23.5 | 8.97 | > 100 | 4.69 | > 100 | 6.55 | > 100 | 2.81 | 10.4 | 0.365 | 1.66
13 | COC(=O)Nc1ccc2ccc3c(NC(=O)OC)ccc4ccc1c2c43 (tested in a mixture with another compound) | 6.08 | 30.5 | 3.4 | > 50 | 5.55 | > 50 | 7.3 | 20.5 | 7.07 | 33.7 | 8.26 | > 50 | 11.5 | > 50 | 14 | > 50 | 6.67 | 19 | 8.22 | > 50
14 | O=[N+]([O-])c1cccc(-c2nc3sccn3c2-c2ccnc(NCCCNS(=O)(=O)c3ccc(F)cc3)n2)c1 | 2.44 | 8.24 | 2.59 | 7.91 | 2.9 | > 100 | 6.95 | > 100 | 1.23 | 5.52 | 1.87 | > 100 | 2.42 | 9.16 | 2.92 | > 100 | 2.57 | 10.4 | 0.677 | 2.94

Reference: PubChem BioAssay (NCI)
